Experimental data published in article PMC9851200, “Multiparameter phenotypic screening for endogenous TFEB and TFE3 translocation identifies novel chemical series modulating lysosome function” (Autophagy, 2022).
“Also recorded” adds a separate entry of the source.

Experiments:
JAK1(JH2) = biological target: T1, JAK1(JH2) (Homo sapiens, UniProt P23458); conditions: cited from earlier work
T1 construct: JAK1(JH2)

PRKD1 = biological target: T2, PRKD1 (Homo sapiens, UniProt Q15139); conditions: cited from earlier work
T2 sequence (Q15139 1-912): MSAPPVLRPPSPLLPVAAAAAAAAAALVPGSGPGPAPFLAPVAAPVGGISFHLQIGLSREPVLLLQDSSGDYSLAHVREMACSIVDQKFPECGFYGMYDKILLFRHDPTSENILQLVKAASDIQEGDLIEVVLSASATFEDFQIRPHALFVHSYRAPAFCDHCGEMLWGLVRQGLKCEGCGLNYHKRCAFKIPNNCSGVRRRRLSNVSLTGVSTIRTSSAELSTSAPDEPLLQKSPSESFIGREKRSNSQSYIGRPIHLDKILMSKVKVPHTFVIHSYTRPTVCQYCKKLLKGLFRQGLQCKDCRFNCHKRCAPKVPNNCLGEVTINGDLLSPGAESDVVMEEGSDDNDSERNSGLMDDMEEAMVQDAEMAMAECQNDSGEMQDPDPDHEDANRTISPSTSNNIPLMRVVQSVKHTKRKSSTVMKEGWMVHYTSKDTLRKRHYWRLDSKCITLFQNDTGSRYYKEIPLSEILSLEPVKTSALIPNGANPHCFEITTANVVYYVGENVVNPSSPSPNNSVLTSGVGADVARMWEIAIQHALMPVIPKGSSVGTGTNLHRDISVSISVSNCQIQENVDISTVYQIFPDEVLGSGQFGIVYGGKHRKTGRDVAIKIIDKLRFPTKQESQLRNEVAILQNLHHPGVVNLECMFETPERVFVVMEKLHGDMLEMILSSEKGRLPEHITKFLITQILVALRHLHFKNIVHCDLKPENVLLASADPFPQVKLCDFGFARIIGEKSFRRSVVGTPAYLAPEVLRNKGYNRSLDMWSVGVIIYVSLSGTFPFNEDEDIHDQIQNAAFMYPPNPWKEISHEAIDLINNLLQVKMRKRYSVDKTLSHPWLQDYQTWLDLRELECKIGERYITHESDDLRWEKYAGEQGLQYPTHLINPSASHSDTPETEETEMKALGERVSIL

BMPR1B = BMPR1B (Homo sapiens, UniProt O00238); conditions: cited from earlier work
Chain of BMPR1B (O00238 14-502): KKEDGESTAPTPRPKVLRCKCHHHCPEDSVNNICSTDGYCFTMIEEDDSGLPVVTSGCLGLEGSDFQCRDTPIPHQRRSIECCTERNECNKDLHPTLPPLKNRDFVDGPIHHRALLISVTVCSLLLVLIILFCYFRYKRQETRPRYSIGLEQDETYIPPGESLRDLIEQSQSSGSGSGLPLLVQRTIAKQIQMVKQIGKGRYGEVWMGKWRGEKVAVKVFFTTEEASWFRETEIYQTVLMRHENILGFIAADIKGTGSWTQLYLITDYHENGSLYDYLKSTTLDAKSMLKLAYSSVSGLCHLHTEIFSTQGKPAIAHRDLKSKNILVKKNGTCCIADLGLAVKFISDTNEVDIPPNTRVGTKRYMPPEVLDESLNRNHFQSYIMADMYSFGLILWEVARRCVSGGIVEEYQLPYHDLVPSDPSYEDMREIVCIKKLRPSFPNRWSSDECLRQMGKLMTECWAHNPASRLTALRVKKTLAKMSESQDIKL

CSNK1E = CSNK1E (Homo sapiens, UniProt P49674); conditions: cited from earlier work
Chain of CSNK1E (P49674 whole entry): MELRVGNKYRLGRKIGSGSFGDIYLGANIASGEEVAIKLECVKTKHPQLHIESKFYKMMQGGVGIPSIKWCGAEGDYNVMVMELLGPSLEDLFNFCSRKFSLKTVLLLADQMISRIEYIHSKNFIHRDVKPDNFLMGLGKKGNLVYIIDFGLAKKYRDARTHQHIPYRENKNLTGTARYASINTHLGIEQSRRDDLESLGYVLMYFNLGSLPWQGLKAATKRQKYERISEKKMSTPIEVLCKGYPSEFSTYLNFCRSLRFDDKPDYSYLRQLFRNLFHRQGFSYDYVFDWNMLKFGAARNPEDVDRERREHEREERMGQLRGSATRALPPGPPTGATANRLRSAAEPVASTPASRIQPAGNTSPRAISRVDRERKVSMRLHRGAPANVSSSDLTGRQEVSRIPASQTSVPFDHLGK

SH-SY5Y cells [1] = conditions: for DQ Intensity / DQ Spot: PKIS2 primary screening; for DQ Intensity: DQ Red BSA intensity; for DQ Spot: DQ Red BSA spot count
From the text: The PKIS2 Library was supplied by The Structural Genomics Consortium at the University of North Carolina at Chapel Hill.

MTOR = MTOR (Homo sapiens, UniProt P42345); conditions: cited from earlier work
CDC42BPB/MRCKB = CDC42BPB/MRCKB (Homo sapiens, UniProt Q9Y5S2); conditions: cited from earlier work
PIKFYVE = PIKFYVE (Homo sapiens, UniProt Q9Y2I7); conditions: cited from earlier work
Chain of PIKFYVE (Q9Y2I7 whole entry): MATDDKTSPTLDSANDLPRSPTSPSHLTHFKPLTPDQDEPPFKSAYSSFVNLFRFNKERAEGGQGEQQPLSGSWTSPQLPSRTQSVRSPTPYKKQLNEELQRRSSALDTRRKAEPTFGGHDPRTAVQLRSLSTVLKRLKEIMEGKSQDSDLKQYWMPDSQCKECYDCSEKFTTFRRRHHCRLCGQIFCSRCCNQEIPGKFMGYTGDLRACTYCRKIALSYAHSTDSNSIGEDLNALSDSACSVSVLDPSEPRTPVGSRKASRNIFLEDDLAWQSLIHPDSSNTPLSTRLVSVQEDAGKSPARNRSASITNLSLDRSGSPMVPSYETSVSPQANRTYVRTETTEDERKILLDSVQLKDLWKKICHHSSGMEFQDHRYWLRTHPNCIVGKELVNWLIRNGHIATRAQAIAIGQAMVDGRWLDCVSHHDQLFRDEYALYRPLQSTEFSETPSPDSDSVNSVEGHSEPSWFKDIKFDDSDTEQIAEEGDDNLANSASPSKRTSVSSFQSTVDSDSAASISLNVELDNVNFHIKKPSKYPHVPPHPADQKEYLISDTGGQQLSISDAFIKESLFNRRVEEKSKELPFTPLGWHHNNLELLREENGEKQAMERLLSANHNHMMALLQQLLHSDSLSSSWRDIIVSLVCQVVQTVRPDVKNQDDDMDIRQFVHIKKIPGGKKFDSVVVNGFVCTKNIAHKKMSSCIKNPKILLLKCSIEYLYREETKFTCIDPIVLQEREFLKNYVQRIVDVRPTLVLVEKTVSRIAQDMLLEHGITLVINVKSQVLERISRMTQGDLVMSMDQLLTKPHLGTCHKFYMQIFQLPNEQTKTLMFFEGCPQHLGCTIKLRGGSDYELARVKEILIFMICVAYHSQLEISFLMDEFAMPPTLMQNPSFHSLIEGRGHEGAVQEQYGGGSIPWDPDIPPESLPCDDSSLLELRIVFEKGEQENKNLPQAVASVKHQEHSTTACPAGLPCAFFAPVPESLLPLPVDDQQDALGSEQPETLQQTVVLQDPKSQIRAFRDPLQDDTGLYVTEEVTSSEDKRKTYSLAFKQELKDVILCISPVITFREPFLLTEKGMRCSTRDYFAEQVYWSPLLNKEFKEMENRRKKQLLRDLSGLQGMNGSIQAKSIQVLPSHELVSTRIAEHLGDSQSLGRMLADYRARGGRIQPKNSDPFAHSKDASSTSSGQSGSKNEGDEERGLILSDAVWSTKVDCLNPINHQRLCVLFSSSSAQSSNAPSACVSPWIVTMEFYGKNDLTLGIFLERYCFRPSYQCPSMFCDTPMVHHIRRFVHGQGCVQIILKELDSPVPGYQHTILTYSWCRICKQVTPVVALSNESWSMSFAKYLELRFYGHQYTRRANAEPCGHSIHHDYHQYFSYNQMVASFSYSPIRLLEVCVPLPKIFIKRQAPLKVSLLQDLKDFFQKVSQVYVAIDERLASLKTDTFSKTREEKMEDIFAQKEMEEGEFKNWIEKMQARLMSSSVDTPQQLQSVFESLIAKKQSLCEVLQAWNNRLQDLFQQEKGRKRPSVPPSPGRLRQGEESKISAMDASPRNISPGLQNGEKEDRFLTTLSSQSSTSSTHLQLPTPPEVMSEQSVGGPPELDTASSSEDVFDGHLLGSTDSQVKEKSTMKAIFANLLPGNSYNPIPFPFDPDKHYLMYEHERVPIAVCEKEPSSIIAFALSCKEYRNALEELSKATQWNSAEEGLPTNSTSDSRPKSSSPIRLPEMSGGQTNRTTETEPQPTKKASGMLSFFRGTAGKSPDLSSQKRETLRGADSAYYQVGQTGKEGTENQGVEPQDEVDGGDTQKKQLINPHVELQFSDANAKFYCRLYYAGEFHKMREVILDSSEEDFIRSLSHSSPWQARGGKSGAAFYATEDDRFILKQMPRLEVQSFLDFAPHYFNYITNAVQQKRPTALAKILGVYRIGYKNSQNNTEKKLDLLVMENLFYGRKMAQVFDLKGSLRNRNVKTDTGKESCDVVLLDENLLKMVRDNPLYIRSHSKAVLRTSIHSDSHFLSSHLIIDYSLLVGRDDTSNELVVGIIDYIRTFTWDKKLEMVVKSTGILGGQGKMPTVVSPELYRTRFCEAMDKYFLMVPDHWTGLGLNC

endogenous TFEB = assay: TFEB nuclear translocation, immunocytochemistry high-content imaging; assay type: cell-based; conditions: for TFEB %: PKIS2 primary screening; for TFEB translocation (in words): SH-SY5Y; as to TFEB %: test concentration or dose not given here
CIT = CIT (Homo sapiens, UniProt O14578); conditions: cited from earlier work
SH-SY5Y cells [2] = assay: Nuclear count from microscopy images (cellular growth and toxicity); conditions: for Nuclear Count: PKIS2 primary screening
ACVR1B = biological target: T3, ACVR1B (Homo sapiens, UniProt P36896); conditions: cited from earlier work
T3 sequence (P36896 24-505): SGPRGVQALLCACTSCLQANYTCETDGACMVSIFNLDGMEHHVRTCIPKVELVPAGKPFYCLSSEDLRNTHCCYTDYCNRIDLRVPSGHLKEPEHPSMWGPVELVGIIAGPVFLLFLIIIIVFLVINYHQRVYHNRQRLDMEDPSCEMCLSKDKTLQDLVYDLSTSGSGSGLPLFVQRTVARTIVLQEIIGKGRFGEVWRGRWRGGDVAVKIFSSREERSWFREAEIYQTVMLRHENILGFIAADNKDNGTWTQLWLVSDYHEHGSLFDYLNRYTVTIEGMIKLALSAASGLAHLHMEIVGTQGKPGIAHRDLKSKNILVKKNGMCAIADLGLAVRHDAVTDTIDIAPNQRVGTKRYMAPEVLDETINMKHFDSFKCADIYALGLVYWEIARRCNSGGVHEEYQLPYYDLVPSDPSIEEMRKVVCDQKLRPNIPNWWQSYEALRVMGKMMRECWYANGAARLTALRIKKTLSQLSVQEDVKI

TGFBR2 = TGFBR2 (Homo sapiens, UniProt P37173); conditions: cited from earlier work
Chain of TGFBR2 (P37173 23-567): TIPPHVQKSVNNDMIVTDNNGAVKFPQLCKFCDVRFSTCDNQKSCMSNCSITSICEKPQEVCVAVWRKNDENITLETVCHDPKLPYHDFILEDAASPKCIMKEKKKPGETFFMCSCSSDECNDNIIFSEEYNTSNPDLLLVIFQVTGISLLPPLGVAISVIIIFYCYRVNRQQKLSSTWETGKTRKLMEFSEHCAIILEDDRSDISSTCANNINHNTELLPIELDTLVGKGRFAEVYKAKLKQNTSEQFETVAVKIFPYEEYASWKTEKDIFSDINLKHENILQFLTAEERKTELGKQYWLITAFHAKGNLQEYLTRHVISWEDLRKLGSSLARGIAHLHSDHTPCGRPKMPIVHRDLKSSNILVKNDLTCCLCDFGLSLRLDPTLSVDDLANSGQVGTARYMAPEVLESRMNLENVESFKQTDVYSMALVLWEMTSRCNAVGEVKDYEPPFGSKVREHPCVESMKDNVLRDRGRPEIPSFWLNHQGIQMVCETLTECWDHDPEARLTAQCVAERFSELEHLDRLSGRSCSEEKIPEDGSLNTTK

SH-SY5Y cells [3] = assay: AK (adenylate kinase) release ToxiLight cytotoxicity assay; conditions: for AK: PKIS2 primary screening
Method: Total cell lysis with 5 µL 5% Triton-X 100 (Sigma-Aldrich, T8787) is used as a positive control for the assay and toxicity is expressed as a percentage of luminescence under DMSO conditions.
For DQ Intensity in this document: reference of the scale not given here.
For DQ Spot in this document: reference of the scale not given here.

T1 sequence (P23458 583-855 limits assumed): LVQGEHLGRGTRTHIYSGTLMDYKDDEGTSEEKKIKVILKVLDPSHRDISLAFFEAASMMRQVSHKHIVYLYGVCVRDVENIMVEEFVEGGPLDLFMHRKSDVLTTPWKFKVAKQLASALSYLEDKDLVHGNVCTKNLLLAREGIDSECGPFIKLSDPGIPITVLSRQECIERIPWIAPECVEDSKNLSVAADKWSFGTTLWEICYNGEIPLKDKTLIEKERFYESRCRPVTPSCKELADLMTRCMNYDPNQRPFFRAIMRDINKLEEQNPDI

| Compound | KINOMEscan binding JAK1(JH2) (JAK1(JH2)) [%] | KINOMEscan binding PRKD1 (PRKD1) [%] | KINOMEscan binding BMPR1B (BMPR1B) [%] | KINOMEscan binding CSNK1E (CSNK1E) [%] | DQ Intensity (SH-SY5Y cells [1]) | DQ Spot (SH-SY5Y cells [1]) | KINOMEscan binding MTOR (MTOR) [%] | KINOMEscan binding CDC42BPB/MRCKB (CDC42BPB/MRCKB) [%] | KINOMEscan binding PIKFYVE (PIKFYVE) [%] | TFEB % (endogenous TFEB) [%] | KINOMEscan binding CIT (CIT) [%] | Nuclear Count (SH-SY5Y cells [2]) | KINOMEscan binding ACVR1B (ACVR1B) [%] | KINOMEscan binding TGFBR2 (TGFBR2) [%] | AK (SH-SY5Y cells [3]) | also measured |
| --- | --- | --- | --- | --- | --- | --- | --- | --- | --- | --- | --- | --- | --- | --- | --- | --- |
| Cc1ccc(-c2nc(Nc3ccncc3)c3ccccc3n2)s1 [GSK189015] | 38 | 18 | 0 | 22 | 116.90 | 105.30 | 10 | 21 | 63 | 4.14 | 42 | 75.74 | 0 | 21 | 70.77 | – |
| COc1ccc2nc(-c3cccc(C)n3)nc(Nc3ccncc3)c2c1 [GSK204919] | 80 | 92.4 | 0 | 64 | 144.99 | 139.38 | 43 | 94.1 | 81 | 4.22 | 73 | 98.76 | – | 10 | 106.43 | TFEB translocation (in words) (endogenous TFEB; 24 h treatment): did not show TFEB and TFE3 activation |
| Cc1cccc(-c2cc(Nc3ccncc3)c3ccccc3n2)n1 [GSK223675] | 5 | 91.1 | 0 | 50 | 136.99 | 120.77 | 7 | 0 | 23 | 7.90 | 23 | 85.07 | 88 | 0 | 117.83 | – |
| Cc1cccc(-c2nc(C)cc(Nc3ccncc3)n2)n1 [GSK257997] | 0 | 78 | 0 | 42 | 78.64 | 86.70 | 13 | 81 | 27 | 2.98 | 23 | 128.02 | 78 | 4 | 66.29 | TFEB translocation (in words) (endogenous TFEB; 24 h treatment): did not show TFEB and TFE3 activation |
| Cc1cccc(-c2nc(Nc3ccncc3)c3ccccc3n2)n1 [GW855857] | 74 | 86 | 29 | 77 | 79.80 | 95.73 | 50 | 63 | 57 | 6.50 | 91.1 | 124.29 | 94.3 | 95.7 | 89.05 | – |
| Cc1cccc(-c2nc(Nc3ccc4nn[nH]c4c3)c3ccccc3n2)n1 [GW867587] | 52 | 94.2 | 0 | 0 | 114.16 | 102.41 | 5 | 2 | 13 | 14.22 | 15 | 123.89 | 0 | 0 | 54.27 | – |
| Cc1cccc(-c2nc(Nc3ccc4ncsc4c3)c3ccccc3n2)n1 [GW867588] | 62 | 98.7 | 0 | 6 | 95.27 | 103.18 | 0 | 33 | 54 | 27.23 | 13 | 62.46 | 35 | 0 | 60.47 | – |
| Cc1csc(-c2nc(Nc3ccncc3)c3ccccc3n2)n1 [GW869640] | 74 | 69 | 42 | 41 | 86.86 | 102.29 | 74 | 44 | 78 | 2.75 | 61 | 81.77 | 94.7 | 88 | 59.35 | – |
| Cc1cccc(-c2nc(Nc3ccncc3)c3sccc3n2)n1 [GW869641] | 90.2 | 99.3 | 82 | 94.9 | 90.97 | 102.97 | 75 | 98.5 | 86 | 20.32 | 96.6 | 70.17 | 96.5 | 95.6 | 80.75 | – |
| Cc1cccc(-c2nc(Nc3ccc4ncsc4c3)c3ccccc3n2)n1 [NK140] | – | – | – | – | – | – | – | – | – | – | – | – | – | – | – | DQ Red BSA fluorescence intensity (in words) (SH-SY5Y cells [1]; SH-SY5Y, 24 h treatment): no increases in DQ Red BSA intensity; DQ Red BSA intensity (in words) (SH-SY5Y cells [1]; SH-SY5Y, 48 h treatment): additional increase in DQ Red BSA intensity; TFEB translocation (in words) (endogenous TFEB; 24 h treatment): modest TFEB and TFE3 translocation; TFEB translocation (in words) (endogenous TFEB; 48 h treatment): induced; also recorded: elevated TFEB and TFE3 translocation; Nuclear count (in words) (SH-SY5Y cells [2]; SH-SY5Y, 48 h treatment): small reduction in nuclear count from 0.75 µM; AK signal (in words) (SH-SY5Y cells [3]; SH-SY5Y, 24 h treatment): reduced; Cellular toxicity (AK release and nuclear count, in words) (SH-SY5Y cells [3]; SH-SY5Y, 24 h treatment): no increases in DQ Red BSA intensity or cellular toxicity; AK release (in words) (SH-SY5Y cells [3]; SH-SY5Y, 48 h treatment): without increases in AK |
| Cc1cccc(-c2nc(Nc3ccncc3)c3ccccc3n2)n1 [NK215] | – | – | – | – | – | – | – | – | – | – | – | – | – | – | – | KINOMEscan JAK1(JH2domain-pseudokinase) (JAK1(JH2); JAK1(JH2domain-pseudokinase), Published KINOMEscan, ref original PKIS2 published data): 74; KINOMEscan PRKD1 (PRKD1; PRKD1, Published KINOMEscan, ref original PKIS2 published data): 86; KINOMEscan BMPR1B (BMPR1B; BMPR1B, Published KINOMEscan, ref original PKIS2 published data): 29; KINOMEscan CSNK1E (CSNK1E; CSNK1E, Published KINOMEscan, ref original PKIS2 published data): 77; KINOMEscan MTOR (MTOR; MTOR, Published KINOMEscan, ref original PKIS2 published data): 50; KINOMEscan CDC42BPB/MRCKB (CDC42BPB/MRCKB): 63; KINOMEscan PIKFYVE (PIKFYVE; kinase PIKFYVE, Published KINOMEscan, ref original PKIS2 published data): 57; KINOMEscan CIT (CIT; CIT, Published KINOMEscan, ref original PKIS2 published data): 91.1; KINOMEscan ACVR1B (ACVR1B): 94.3; KINOMEscan TGFBR2 (TGFBR2; TGFBR2, Published KINOMEscan, ref original PKIS2 published data): 95.7 |
